Values of other authors in US20200246404A1, “FORMULATIONS” (Molecular Infusions, LLC, priority 2017, published 2020).

Assays:
human PBMCs = human PBMCs in vitro
encephalitogenic T cells = encephalitogenic T cells after in vivo application to rats

| SMILES | release of IFN-γ and IL-17 (human PBMCs) | release of IFN-γ and IL-17 (encephalitogenic T cells) | duration of action for psychoactive effects (in vivo) | administered dose that reaches the systemic circulation (oral) |
| --- | --- | --- | --- | --- |
| CCOC(=O)C(C)=O [Ethyl pyruvate] | efficiently suppressed | efficiently suppressed |  |  |
| CCCCCc1cc(O)c2c(c1)OC(C)(C)[C@@H]1CCC(C)=C[C@@H]21 [dronabinol, Synthetic Δ9-tetrahydrocannabinol] |  |  | 4 to 6 h | 10 to 20% |
